Activity calls are given as the source filed them. No cut-off for these calls is given here.
Key:
[1] = Inhibition of Cav1.2 (unknown origin); parameters: species or system Homo sapiens
NCI-H1417 [2] = test: Effect on cell cycle in human NCI-H1417 cells assessed as cell accumulation at […] phase upto 1000 nM measured for 7 to 14 days by flow cytometry; type: functional, cell-based; details: time 7-14 day
[3] = Toxicity in mouse xenografted with human NCI-H1417 cells assessed as grooming behaviour at 1.5 mg/kg, po administered daily measured for 30 days; type: organism-based; details: in vivo, 720 h, time 30 day
[4] = Effect on cleaved PARP level in human NCI-H526 cells assessed as relative expression at 1000 nM measured after 7 days by Western blot analysis (reference value: 0.57); type: functional; details: time 7 day
[5] = Effect on cleaved PARP level in human NCI-H526 cells assessed as relative expression at 10 nM measured after 10 days by Western blot analysis (reference value: 0.81); type: functional; details: time 10 day
[6] = Effect on cleaved PARP level in human NCI-H526 cells assessed as relative expression at 10 nM measured after 14 days by Western blot analysis (reference value: 0.66); type: functional; details: time 14 day
[7] = Effect on cleaved PARP level in human NCI-H526 cells assessed as fold change at 1000 nM measured after 7 days by Western blot analysis (reference value: 1.00); type: functional; details: time 7 day
[8] = Effect on cleaved PARP level in human NCI-H526 cells assessed as fold change at 100 nM measured after 10 days by Western blot analysis (reference value: 1.00); type: functional; details: time 10 day
[9] = Effect on cleaved PARP level in human NCI-H526 cells assessed as fold change at 100 nM measured after 14 days by Western blot analysis (reference value: 1.00); type: functional; details: time 14 day
[10] = Effect on cleaved PARP level in human NCI-H524 cells assessed as relative expression at 100 nM measured after 7 days by Western blot analysis (reference value: 0.63); type: functional; details: time 7 day
[11] = Effect on cleaved PARP level in human NCI-H524 cells assessed as relative expression at 100 nM measured after 10 days by Western blot analysis (reference value: 0.95); type: functional; details: time 10 day
[12] = Effect on cleaved PARP level in human NCI-H524 cells assessed as fold change at 1000 nM measured after 7 days by Western blot analysis (reference value: 1.00); type: functional; details: time 7 day
[13] = Effect on cleaved PARP level in human COLO-668 cells assessed as relative expression at 10 nM measured after 7 days by Western blot analysis (reference value: […]); type: functional; details: time 7 day
[14] = Effect on cleaved PARP level in human COLO-668 cells assessed as fold change at 1000 nM measured after 10 days by Western blot analysis (reference value: 1.00); type: functional; details: time 10 day
[15] = Effect on cleaved PARP level in human COLO-668 cells assessed as fold change at 1000 nM measured after 14 days by Western blot analysis (reference value: 1.00); type: functional; details: time 14 day
[16] = Effect on cleaved PARP level in human NCI-H1694 cells assessed as relative expression at 100 nM measured after 14 days by Western blot analysis (reference value: 0.25); type: functional; details: time 14 day
[17] = Effect on cleaved PARP level in human NCI-H1694 cells assessed as fold change at 100 nM measured after 14 days by Western blot analysis (reference value: 1.00); type: functional; details: time 14 day
[18] = Effect on cleaved PARP level in human NCI-H510 cells assessed as fold change at 10 nM measured after 10 days by Western blot analysis (reference value: 1.00); type: functional, NCI-H510A; details: time 10 day
[19] = Effect on cleaved PARP level in human NCI-H510 cells assessed as fold change at 1000 nM measured after 14 days by Western blot analysis (reference value: 1.00); type: functional, NCI-H510A; details: time 14 day
[20] = Effect on cleaved PARP level in human NCI-H889 cells assessed as fold change at 100 nM measured after 14 days by Western blot analysis (reference value: 1.00); type: functional; details: time 14 day
[21] = Effect on cleaved PARP level in human NCI-H2171 cells assessed as fold change at 1000 nM measured after 7 days by Western blot analysis (reference value: 1.00); type: functional; details: time 7 day
[22] = Effect on cleaved PARP level in human NCI-H2171 cells assessed as fold change at 10 nM measured after 10 days by Western blot analysis (reference value: 1.00); type: functional; details: time 10 day
[23] = Effect on cleaved PARP level in human NCI-H146 cells assessed as relative expression at 10 nM measured after 10 days by Western blot analysis (reference value: 0.27); type: functional; details: time 10 day
[24] = Effect on cleaved PARP level in human NCI-H146 cells assessed as relative expression at 1000 nM measured after 14 days by Western blot analysis (reference value: 2.42); type: functional; details: time 14 day
[25] = Effect on cleaved PARP level in human NCI-H146 cells assessed as fold change at 100 nM measured after 10 days by Western blot analysis (reference value: 1.00); type: functional; details: time 10 day
[26] = Toxicity in rat assessed as thrombocytopenia measured for 28 days; details: in vivo, 672 h, time 28 day
[27] = Toxicity in dog assessed as declining clinical condition measured for 28 days; parameters: species or system Canis lupus familiaris; details: in vivo, 672 h, time 28 day
[28] = Toxicity in dog assessed as morbidity measured for 28 days; parameters: species or system Canis lupus familiaris; details: in vivo, 672 h, time 28 day
[29] = Toxicity in dog assessed as congestion in lymphoid organs measured for 28 days; parameters: species or system Canis lupus familiaris; details: in vivo, 672 h, time 28 day
SHP77 = test: Antitumor activity against human SHP77 cells xenografted in nude mouse assessed as mean tumor volume at […] mg/kg, po administered daily measured twice weekly (reference value: 2193 +/- 293 mm3); type: functional; details: 1.25 mg/kg
NCI-H146 = test: Effect on SYP gene expression in human NCI-H146 cells at 1 uM measured after 4 days by qRT-PCR analysis; type: functional, cell-based; details: time 4.0 day
NCI-H1417 [30] = test: Antitumor activity against human NCI-H1417 cells xenografted in nude mouse assessed as decrease in GRP expression at 1.5 mg/kg administrated daily by qRT-PCR analysis; type: functional, organism-based; details: time 1-14 day, TDE = time-dependent effect
NCI-H526 [31] = test: In vivo inhibition of LSD1 in human NCI-H526 cells xenografted in nude mouse assessed as change in ANXA6 gene expression measured after 24 hrs post single administration by qRT-PCR analysis; type: functional, organism-based; details: dose 0.06-135 mg/kg
NCI-H526 [32] = test: In vivo inhibition of LSD1 in human NCI-H526 cells xenografted in nude mouse assessed as change in IGFBP2 gene expression administrated daily for 5 days by qRT-PCR analysis; type: functional, organism-based; details: dose 0.02-135 mg/kg, time 5.0 day
NCI-H526 [33] = test: In vivo inhibition of LSD1 in human NCI-H526 cells xenografted in nude mouse assessed as change in ZEB1 gene expression administrated daily for 5 days by qRT-PCR analysis; type: functional, organism-based; details: dose 0.02-135 mg/kg, time 5.0 day
[34] = target: T1, Lysine-specific histone demethylase 1A (Homo sapiens, UniProt O60341)
Description: Binding affinity to LSD1 (unknown origin) using H3K4me2 as substrate assessed as inactivation constant by HRP-coupled amplex red assay

[35] = target: T1, Lysine-specific histone demethylase 1A; details: NCI-H526, dose 1-10000 nM, time 1-7 day
Description: Inhibition of LSD1 in human NCI-H526 cells assessed as change in IGFBP2 gene expression at 1 to 10000 nM by qRT-PCR analysis

## c1ccc([C@@H]2C[C@H]2NC2CCNCC2)cc1
[1]
  IC50: > 100 µM

## O=C(O)c1ccc(CN2CCC(CN[C@@H]3C[C@H]3c3ccccc3)CC2)cc1 [GSK2879552]
NCI-H1417 [2]
  Activity: inactive
[3]
  Activity: Non-Toxic
[4]
  Activity: 0.74
[5]
  Activity: 0.46
[6]
  Activity: 0.48
[7]
  fold change (FC): 1.3
[8]
  fold change (FC): 1.16
[9]
  fold change (FC): 1.41
[10]
  Activity: 0.6
[11]
  Activity: 0.67
[12]
  fold change (FC): 1.77
[13]
  Activity: 1.07
[14]
  fold change (FC): 0.59
[15]
  fold change (FC): 0.29
[16]
  Activity: 0.23
[17]
  fold change (FC): 0.89
[18]
  fold change (FC): 4.22
[19]
  fold change (FC): 2.61
[20]
  fold change (FC): 2.51
[21]
  fold change (FC): 2.18
[22]
  fold change (FC): 1.33
[23]
  Activity: 0.33
[24]
  Activity: 1.45
[25]
  fold change (FC): 0.94
[26]
  Activity: Toxic
[27]
  Activity: Toxic
[28]
  Activity: Toxic
[29]
  Activity: Toxic
SHP77
  Activity: 1845 mm3
NCI-H146
  Activity: inactive
NCI-H1417 [30]
  Activity: Tde
NCI-H526 [31]
  inhibition: Dose-Dependent Effect
NCI-H526 [32]
  inhibition: Dose-Dependent Effect
NCI-H526 [33]
  inhibition: Dose-Dependent Effect
[34]
  Kinact: 0.11 min⁻¹
[35]
  inhibition: Tde

— ChEMBL document CHEMBL5705903, “A DNA Hypomethylation Signature Predicts Antitumor Activity of LSD1 Inhibitors in SCLC” (Cancer Cell, 2015)
